The source of these data is US7005533B2, “Bisphosphonate derivatives, their preparations and uses” (Universite Paris 13, priority 2001, dated 2006).

The subject of series [1] is A 431 tumors. The series is described as follows: Intratumoral angiogenesis of A 431 tumors (GSL 1 immunohistochemistry, image analysis). Type of series: in vivo, mice. The conditions noted are these: observed starting from the lowest doses (0.006 mg/injection). As for the experimental part:
Animals were sacrificed and the tumors excised, then weighed, fixed, embedded in paraffin and sliced. Endothelial cells from tumor blood vessels laid down during tumor angiogenesis were visualized by immunohistochemical methods (GSL 1). Tumor angiogenesis was evaluated by image analysis with NIH image software.

The nature of series [2]: Toxicity test in tumor-free immunosuppressed mice. In kind it is in vivo. The following applies: one injection per day for one week. As for the experimental part:
Tumor-free immunosuppressed mice were treated with BP1 and BP2 at doses ranging from 0.06 to 6 mg per injection and per animal. Mice received one injection per day for one week. Animals were weighed before, during and after treatment.

The test system of series [3] is A 431 tumors. The series is described as follows: In vivo growth of subcutaneous A 431 tumors in immunosuppressed mice. The conditions noted are these: for inhibition of the growth of A 431 tumors: 0.6 mg/injection/mouse, twice weekly s.c. near the tumor, after 5 weeks of treatment, P<0.05. As for the experimental part: A 431 cells were injected subcutaneously into immunosuppressed mice. The mice developed tumors within one week. Tumor-bearing mice were assigned randomly to a control group or to treatment groups receiving different concentrations of BP1 and BP2.
Mice received twice weekly by subcutaneous injection near the tumor either 0.1 ml of PBS alone for the controls (n=6), or PBS containing either BP1 or BP2 at the following doses: 0.006 (n=6); 0.06 (n=6) or 0.6 mg/injection (n=6). Tumors were measured weekly and their volume V calculated by the formula: V=(4/3)πR1^2R2 wherein R1 is radius 1 and R2 radius 2, with R1<R2.

Series [4] in a line: Trypan blue exclusion test (cytotoxicity of BP1 and BP2). Type of series: cell-based. The following applies: even at concentrations above 5 mM.
The subject of series [5] is A 431 human carcinoma cells. The series is described as follows: MTT cell proliferation test, A 431 cells. The conditions noted are these: 2 mM. In kind it is cell-based. As for the experimental part: (§1) The bisphosphonates BP1 and BP2 were tested in different cell lines: • FRCjun MRA, a murine fibrosarcoma cell line produced by transfection of FR3T3 cells by the oncogene jun-4, • A 431 human carcinoma cells. These cells harbor a VEGF (vascular endothelial growth factor) autocrine loop and, after implantation in immunosuppressed mice, induce rapid development of highly angiogenic tumors. • MDA MB 435 human breast tumor cells, • HUV-EC-C, transformed human umbilical cord endothelial cells (HUVEC), • BBC, bovine cerebral capillary endothelial cells.
(§2) Cell proliferation in the presence of different concentrations of BP1 or BP2 was measured by an MTT test after 24, 48 and 72 h of culture.

In series [6] the test system is FRCjun MRA, a murine fibrosarcoma cell line. Put plainly: MTT cell proliferation test, FRCjun MRA cells. In kind it is cell-based. The following applies: Mus musculus; 2 mM, after 48 h of culture, FRCjunMRA cells. As to the method:
as §1, §2

The test system of series [7] is MDA MB 435 human breast tumor cells. The series is described as follows: MTT cell proliferation test, MDA MB 435 cells. Type of series: cell-based. The following applies: 2 mM, after 48 h of culture. As for the experimental part:
as §1, §2

Series [8] has as its system MCF7-ras tumors. Put plainly: Anti-angiogenic effect in MCF7-ras tumors, GSL1 lectin method. In kind it is in vivo, mice. As to the method: The anti-angiogenic was verified by the GSL1 lectin method.
By using GSL1 lectin, angiogenesis is determined and identified by the red coloration staining of endothelial cells with anti-GSL1 antibody. It is noted that this angiogenesis is inhibited by the treatment of the tumors with phenylacetate bisphosphonate. This effect is partial but important (80%) at the 80 mg/kg dose. and complete at 160 mg/kg.

The subject of series [9] is MCF7 cells. Put plainly: DNA degradation (agarose gel electrophoresis), MCF7 cells. The conditions noted are these: 10 mM, after 96 hours. In kind it is cell-based. As for the experimental part: (§3) The cell apoptosis is confirmed by the method of DNA degradation. MCF7 and MCF7-ras cells are cultivated (5×10^5 cells in T25 flasks). After 24 hours, the cells are washed, and then cultivated in DMEM medium with 10% of foetal calf serum; phenylacetate bisphosphonate (10 mM) is added to one group, and no phenylacetate bisphosphonate is added to the other group.
(§4) After 96 hours, the cell extract containing the fragmented DNA is incubated with 0.5 mg/ml of RNase A at 37° C. for one hour, then with 0.5 mg/ml of proteinase K for one hour at 37° C. After incubation, the fragmented DNA is precipitated by isopropanol and then dissolved in 10 mM of Tris-HCl (pH 8) […], 5% of glycerol and 0.05% bromophenol blue. The fragmented DNA separated by electrophoresis on agarose gel at 1% is marked with ethidium bromide and photographed in UV.

Series [10] deals with acute hepatitis. Put plainly: Liver histology (HES) in nude mice having an acute hepatitis. In kind it is in vivo. The following applies: 80 mg/kg or 160 mg/kg s.c., twice a week for five weeks. As to the method: The study is carried out on nude mice having an acute hepatitis. The mice are divided in two groups, one being treated with sodium phenylacetate bisphosphonate, whilst the second is not. Phenylacetate bisphosphonate is administered to the treated mice sub-cutaneously (80 mg/kg or 160 mg/kg), twice a week for five weeks. The mice are sacrificed and the liver is histologically analyzed after HES (method of Hematoxiline Eosine Staining).

For series [11], the system named is MCF7-ras cells. Put plainly: Reversibility of proliferation inhibition, tritiated thymidine incorporation. The conditions noted are these: 10 days treatment, thymidine after 15 days. In kind it is cell-based. As for the experimental part:
In order to check the reversibility of the effect of phenylacetate bisphosphonate, MCF7-ras cells have been treated with increasing concentrations of phenylacetate bisphosphonate for 10 days, the medium being changed every two days. The cells are divided in two groups. The DMEM medium supplemented with 10% of foetal calf serum is added to the first group, and the same medium with 10 mM of phenylacetate bisphosphonate is added to the second group, the medium being changed every two days. After 15 days, tritiated thymidine is added during 4 hours and the radioactivity of the suspension is determined by using a beta liquid scintigraphic counter (Beckman).
A general note: Dividing cells build labelled thymidine or BrdU into new DNA.

The test system of series [12] is MCF7 cells. Put plainly: Apoptosis by Annexine V-FITC / propidium iodide, MCF7 cells. In kind it is cell-based. The following applies: 10 mM, after 4 hours of treatment. As to the method: (§5) In order to determine the nature of the toxicity of sodium phenylacetate bisphosphonate, MCF7 and MCF7-ras cells are cultivated, and then washed after 24 hours, and cultivated for 3 hours in DMEM medium with 10% of foetal calf serum. Phenylacetate bisphosphonate (10 mM) is added to one group but not to the other group. Apoptosis is determined by the test of Annexine V conjugated with FITC antibody. Propidium iodide is used in order to determine early apoptosis (positive staining for Annexine V and negative staining with propidium iodide) and late apoptosis (positive staining with Annexine V and with propidium iodide).

In series [13] the test system is MCF7-ras cells. The series is described as follows: Apoptosis by Annexine V-FITC / propidium iodide, MCF7-ras cells. The following applies: 10 mM, after 4 hours of treatment. Type of series: cell-based. As for the experimental part:
as §5

Series [14] has as its system MCF7-ras cells. Put plainly: MCF7-ras cell growth and viability (Trypan blue test). In kind it is cell-based. The following applies: for toxicity (cell viability, Trypan blue): 8 and 10 mM. As to the method:
MCF7-ras cells are cultivated (20,000 cells/well), on a dish of 24 wells. After incubation for 24 hours, the medium (DMEM with 10% foetal calf serum) is replaced with the same medium to which are added various concentrations of phenylacetate bisphosphonate (2 mM, 4 mM, 6 mM, 8 mM and 10 mM). The cells are incubated for 1 to 4 days at 37° C. The cell viability is controlled by the Trypan blue test.

The subject of series [15] is MCF7-ras tumors. Put plainly: Pro-apoptotic effect in MCF7-ras tumors, M30 antibody staining. In kind it is in vivo, mice. From the text: Further, the proapoptotic effect of phenylacetate bisphosphonate is confirmed by the technique of antibody staining. The staining of apoptotic cells is made by the M30 antibody which recognises the specific site of caspases on the cytokeratine 18 filaments produced by the epithelial cells. Such filaments rapidly aggregate in the cells in early apoptosis, by hyperphosphorylation of cytokeratines. By this cytoplasmic staining, granular structures are observed inside the cytoplasm, which corresponds to cells in late apoptosis.

For series [16], the system named is MCF7-ras cells. The series is described as follows: DNA degradation (agarose gel electrophoresis), MCF7-ras cells. In kind it is cell-based. The following applies: 10 mM, after 96 hours. As for the experimental part: as §3, §4
Series [17] relates to MCF7-ras tumors. Put plainly: In vivo antitumor effect on MCF7-ras tumors in female athymic nude mice. As to the method:
Inoculation of 4×10^6 MCF7-ras cells in female athymic nude mice is made sub-cutaneously in a 0.1 ml volume of DMEM, which induces 70% of tumors after three weeks.
Treatment with phenylacetate bisphosphonate begun when the mean volume of the tumors was 550 mm^3. The animals are divided in two groups, on receiving phenylacetate bisphosphonate, and the other no. Phenylacetate bisphosphonate is injected sub-cutaneously and peritumorally, twice a week, during 5 weeks, and the doses are 80 mg/kg (5 cases) and 160 mg/kg (6 cases).

For orientation: inhibition means the change of the read-out against control, counted positive when it falls. Read a high inhibition as a response far below the control.

Turning to `O=P(O)(O)C(O)(Cc1ccccc1)P(=O)(O)O` [BP1, reference compound], the “inhibition of intratumoral angiogenesis (endothelial cell area per unit of area)” value in series [1] is on record as “significant decrease in endothelial cell area per unit of area”. In addition, in [2] (doses less than 6 mg/injection), the “signs of toxicity such as hair loss, diarrhea, infection or anemia” value is given as “no signs of toxicity”. For the same compound, the “inhibition of the growth of A 431 tumors” value in series [3] stood at 40%. Moreover, the “cytotoxicity (trypan blue exclusion)” value in series [4] is recorded as “do not induce cytotoxicity”.

`COP(=O)(O)C(O)(Cc1ccccc1)P(=O)(O)OC` (centres unmarked) [BP2]: in series [1], the “inhibition of intratumoral angiogenesis (endothelial cell area per unit of area)” value is recorded as “significant decrease in endothelial cell area per unit of area”. For the same compound, the inhibition at 2000 µM worked out at 30% in series [5] (after 48 h of culture); 80% in series [5] (after 72 h, P<0.05); 40% in series [6]; 60% in [7]. In series [2] (all doses tested (0.06–6 mg/injection)), the “signs of toxicity such as hair loss, diarrhea, infection or anemia” value was “no signs of toxicity”. Further, in [3], the “inhibition of the growth of A 431 tumors” value was 56%. In addition, the “comparative in vivo efficacy” value in series [3] (A 431 tumors in mice) is “greater efficacy than BP1”. Besides, the “cytotoxicity (trypan blue exclusion)” value in series [4] was “do not induce cytotoxicity”.

Regarding `O=P(O)(O)C(O)(Cc1ccccc1)P(=O)(O)O` [phenylacetate bisphosphonate], the “inhibition of tumor angiogenesis” value in series [8] (80 mg/kg dose) was 80%; in [8] (160 mg/kg), “complete”. Further, the “degradation of DNA” value in [9] and in series [16] was “dramatic degradation of DNA” each time. Besides, in [10], the “hepatic toxicity noted in treated mice” value was 4 cases out of 5. In addition, the “reversibility of the inhibition of cell proliferation” value in series [11] (dose above 4 mM) is “irreversible”; in series [11] (dose of 2 mM), “partially reversible”. For the same compound, the results for the “percentage of cells in late apoptosis” value in [12] (MCF7 cells) and in [13] (MCF7-ras cells) were 22% and 53%, respectively. Moreover, the “percentage of cells in early apoptosis” value in series [12] (MCF7 compared with MCF7-ras) and in series [13] (MCF7-ras compared with MCF7) was “almost identical in the two cell types” in each case. Moreover, the “toxicity (cell viability, Trypan blue)” value in [14] (by the fourth day of culture) is 50–60%; in [14] (three first days of culture), 10%. In series [14] (concentrations lower than 6 mM, three first days of culture), the “effect on cell growth” value was “cytostatic”. Further, the results for the “state of tumor cells (M30 / cytokeratine 18 staining)” value in series [15] (80 mg/kg dose) and in [15] (160 mg/kg dose) were “apoptosis” and “aponecrosis”, respectively. Further, the entries for the “tumor growth when the treatment is stopped” value in series [17] (80 mg/kg dose) and in series [17] (160 mg/kg dose) were “tumor growth relapsed is observed” and “blocked for at least three weeks”, respectively. The “inhibition of the growth of the tumors” value in series [17] (80 and 160 mg/kg s.c. peritumorally, twice a week, 5 weeks, at the end of the treatment) was “irreversible and dose dependent”. Besides, in series [17] (even when the treatment is applied during a long period of time), the “toxic effect in vivo” value was “without any toxic affect”. Besides, in series [17] (first five or six weeks of treatment), the “proliferation of MCF7-ras cells and growth of mammary tumors in vivo” value is reported as “irreversibly blocks”. The “immunohistologic analysis of the tumors: what the decrease in tumor growth is related to” value in [17] (treated MCF7-ras tumors) is “induction of apoptosis, to a sharp decrease of angiogenesis of the tumor and induction of fibrose in the tumor”.
